Paper PMC11992087, “A Bacteroides thetaiotaomicron genetic locus encodes activities consistent with mucin O-glycoprotein processing and N-acetylgalactosamine metabolism” (Nature Communications, 2025)

Key:
BT4246-SusD-like [1] = target: T1, BT4246-SusD-like (Bacteroides thetaiotaomicron, UniProt Q89ZX5); test: ITC; format: binding; set-up: gene BT_4246; mature form, signal peptide removed, His-tagged, from E. coli (ITC); conditions: 20 mM Tris-HCl pH 7.5, 25 °C; single-site model
T1 sequence (Q89ZX5 25-642): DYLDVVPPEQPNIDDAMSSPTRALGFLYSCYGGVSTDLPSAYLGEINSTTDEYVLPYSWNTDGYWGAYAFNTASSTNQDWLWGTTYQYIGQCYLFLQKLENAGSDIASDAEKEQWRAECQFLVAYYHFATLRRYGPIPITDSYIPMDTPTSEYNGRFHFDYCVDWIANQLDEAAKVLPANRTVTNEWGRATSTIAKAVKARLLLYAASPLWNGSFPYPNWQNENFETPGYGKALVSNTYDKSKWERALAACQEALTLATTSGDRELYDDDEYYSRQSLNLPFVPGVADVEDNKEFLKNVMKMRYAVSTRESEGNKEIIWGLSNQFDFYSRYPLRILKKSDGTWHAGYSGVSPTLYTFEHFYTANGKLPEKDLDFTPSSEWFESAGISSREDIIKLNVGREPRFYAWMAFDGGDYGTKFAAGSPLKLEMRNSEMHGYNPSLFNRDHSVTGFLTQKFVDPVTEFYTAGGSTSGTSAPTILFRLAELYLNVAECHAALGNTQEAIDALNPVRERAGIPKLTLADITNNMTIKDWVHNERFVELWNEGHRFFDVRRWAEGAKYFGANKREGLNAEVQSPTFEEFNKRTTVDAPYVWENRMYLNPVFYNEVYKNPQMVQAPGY

BT4244-CBM32 = target: T2, BT4244-CBM32 (Bacteroides thetaiotaomicron, UniProt Q89ZX7); test: ITC; format: binding; conditions: 20 mM Tris-HCl pH 7.5, 25 °C; single-site model
T2 construct: gene BT_4244
T2 sequence (Q89ZX7 145-285 limits assumed): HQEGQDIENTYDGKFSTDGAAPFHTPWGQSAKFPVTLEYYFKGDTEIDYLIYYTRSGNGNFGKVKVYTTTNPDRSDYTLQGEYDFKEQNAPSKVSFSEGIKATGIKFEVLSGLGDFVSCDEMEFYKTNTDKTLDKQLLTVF

BT4245-SGBP = target: T3, BT4245-SGBP (Bacteroides thetaiotaomicron, UniProt Q89ZX6); test: ITC; format: binding; conditions: 20 mM Tris-HCl pH 7.5, 25 °C; single-site model
T3 construct: gene BT_4245; full-length mature protein, signal peptide removed, His-tagged, from E. coli
T3 sequence (Q89ZX6 21-430): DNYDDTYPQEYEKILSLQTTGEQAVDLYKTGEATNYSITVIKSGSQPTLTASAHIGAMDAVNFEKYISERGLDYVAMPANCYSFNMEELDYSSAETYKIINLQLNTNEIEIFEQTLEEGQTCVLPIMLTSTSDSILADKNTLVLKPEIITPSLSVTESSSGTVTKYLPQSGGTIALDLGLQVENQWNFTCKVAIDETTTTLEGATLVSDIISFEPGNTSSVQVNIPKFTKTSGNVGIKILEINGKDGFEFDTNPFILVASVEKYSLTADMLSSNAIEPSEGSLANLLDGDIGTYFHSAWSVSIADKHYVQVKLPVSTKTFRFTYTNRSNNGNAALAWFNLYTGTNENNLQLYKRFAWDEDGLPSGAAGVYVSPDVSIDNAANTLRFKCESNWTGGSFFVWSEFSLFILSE

BT4246-SusD-like [2] = target: T1, BT4246-SusD-like; test: X-ray crystal structure, […] Å; format: binding; set-up: gene BT_4246; residues 25-642, His-tag removed by TEV protease, from E. coli (crystal); conditions: crystals soaked in 4% PGMIII O-glycan oligosaccharides; only the terminal Gal of an undefined oligosaccharide is modelled, not free galactose
[3] = substrate: CC(=O)N[C@H]1[C@@H](Oc2ccc([N+](=O)[O-])cc2)O[C@H](CO)[C@H](O)[C@@H]1O; test: 4-nitrophenol release at A400; format: biochemical, Bacteroides thetaiotaomicron; conditions: 20 mM MOPS pH 7.0, 37 °C, 0.4 µM enzyme
Method: 4-nitrophenol release at A400 on BT4243-GH109 | between GalNAc and serine in Tn antigen as well as PNP-α-GalNAc | enzyme (final) was added to substrate (PNP-α-GalNAc or PNP-β-GalNAc, respectively)

Question: For `CC(=O)N[C@H]1C(O)O[C@H](CO)[C@@H](O)[C@@H]1O[C@@H]1O[C@H](CO)[C@H](O)[C@H](O)[C@H]1O` (some centres unmarked) [lacto-N-biose], which Ka (BT4246-SusD-like [1]) is on record?
Answer: The Ka was 0.13 (±0.07) × 10^4.

Question: How did the Ka (BT4244-CBM32) turn out when `OC[C@H]1OC(O)[C@H](O)[C@@H](O)[C@H]1O` (some centres unmarked) [Gal] was run?
Answer: Its Ka is 0.16 (±0.01) × 10^4.

Question: And the Ka (BT4245-SGBP)?
Answer: The Ka was > 0.1 × 10^4.

Question: Which results are given for `CC(=O)N[C@H]1C(O)O[C@H](CO)[C@H](O)[C@@H]1O[C@@H]1O[C@H](CO)[C@H](O)[C@H](O)[C@H]1O` (some centres unmarked) [core 1 disaccharide]?
Answer: Ka (BT4244-CBM32): 0.20 (±0.01) × 10^4; Ka (BT4246-SusD-like [1]): 0.45 (±0.03) × 10^4

Question: With `CC(=O)N[C@H]1C(O)O[C@H](CO)[C@H](O)[C@@H]1O` (some centres unmarked) [GalNAc] as the molecule, how does the Ka (BT4244-CBM32) read?
Answer: Its Ka is 0.40 (±0.03) × 10^4.

Question: What about the Ka (BT4245-SGBP) of the same molecule?
Answer: The Ka was 1.20 (±0.2) × 10^4.

Question: `OC[C@H]1OC(O)[C@H](O)[C@@H](O)[C@H]1O` (some centres unmarked) [terminal Gal from a mucin O-glycan oligosaccharide] was tested. Which “X-ray crystal structure, 1.8 Å” value (BT4246-SusD-like [2]) did it give?
Answer: The value was “In the resulting structure, unambiguous electron density was observed for a β-linked Gal”.

Question: Which Ka (BT4244-CBM32) does the source give for `OC[C@H]1O[C@@H](O[C@H]2[C@H](O)[C@@H](O)C(O)O[C@@H]2CO)[C@H](O)[C@@H](O)[C@H]1O` (some centres unmarked) [lactose] here?
Answer: The Ka was 0.23 (±0.00) × 10^4.

B1: BT4243-GH109 (Bacteroides thetaiotaomicron VPI-5482) (protein)
chain: QKTKAKFSPIKVETPARPANQQDVIQLVTPKLETVRVGFIGLGMRGPGAVERWTHIPGTQIVALCDLLPERVENAQKILEKAGLPKAASYAGDEKAWKKLCERDDIDVVYIATDWKHHADMGVYAMEHGKHVAIEVPAAMTLDEIWKLINTSEKTRKHCMQLENCVYDFFELTSLNMAQQGVFGEVLHVEGAYIHNLEDFWPYYWNNWRMDYNQKHRGDVYATHGMGPACQVLNIHRGDRMKTLVAMDTKAVNGPAYIKKSTGKEVKDFQNGDQTTTLIRTENGKTMLIQHNVMTPRPYSRMYQVVGADGYASKYPIEEYCLRPTQVDSNDVPNHEKLNAHGSVSEDVKKALMAKYKDPIHKELEETAKKVGGHGGMDYIMDYRLVYCLRNGLPLDMDVYDLAEWCCMAELTRLSIENGSAPVEVPDFTRGGWNKVQGYRHAFAE
notes: mature form, signal peptide removed, His-tagged, from E. coli
Question: With B1 as the molecule, how does the Km [3] read?
Answer: The Km was 0.03 (±0.005) mM.

Question: What about the kcat [3] of the same molecule?
Answer: Its kcat is 2.1 (±0.3) s-1.
